Reference: US9212168B2 (priority 2011, dated 2015)

What was measured:
HCV genotype 1a replicon = HCV genotype 1a replicon assay (NS3 protease activity readout); format: cell-based, hepatitis C virus; conditions: Hepatitis C virus, read-out: Genotype 1a, HCV genotype 1a replicon
Outline: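 EC50 values came from a 4-parameter robust fit of fluorescence (ex 340, em 509 nm) produced by NS3-specific protease in lysates, assayed with 15 μM FRET substrate for 20 min at 37° C, after 48 or 72 hours of compound exposure (0.5% DMSO) of Huh7.5-derived APC89 genotype 1a replicon cells.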

[1] = system: HCV genotype 3a NS5A chimeric replicon; assay: Replicon assay against NS5A sequence of genotype 3a, intergenotypic chimera; format: cell-based; conditions: Hepatitis C virus, read-out: Genotype 3a
Procedure: (§1) Assay 4: Replicon Assays Against NS5A Sequences of Other Genotypes
(§2) Potencies of test compounds against NS5A sequences of other genotypes were determined by creating intergenotypic chimeras. The entire NS5A gene from genotypes 2a, 2b, 3a, 4a, 5a, and 6a, or the nucleotide sequence encoding amino acids 11-118 of NS5A, was subcloned into a genotype 1b replicon. For genotype 2a, intergenotypic chimeras with both the JFH and the J6 strain were created. […] Since the majority of genotype 2a sequences in public databases contain the L31M sequence variant, the use of the J6 genotype 2a sequence may better reflect the antiviral potency of NS5A inhibitors.
(§3) These chimeric replicon plasmids were then linearized and in vitro transcribed to RNA. The RNA was used to transiently or stably transfect Huh-LUNET cells by electroporation, and the potencies of test compounds against the chimeras were determined as previously described.

[2] = system: HCV genotype 2a (J6 strain) NS5A chimeric replicon; assay: Replicon assay against NS5A sequence of genotype 2a (J6 strain), intergenotypic chimera; format: cell-based; conditions: Hepatitis C virus, read-out: Genotype 2a (J6)
Procedure: as §1, §2, §3

HCV genotype 1b replicon = HCV genotype 1b replicon assay (Renilla luciferase readout); format: cell-based, hepatitis C virus; conditions: Hepatitis C virus, read-out: Genotype 1b
Outline: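 Reported as pEC50 derived from a 4-parameter fit of Renilla luciferase activity against concentration. Replicon cells (APC144, Huh7 background) were exposed to compound for 48 h in G418-free medium with final 0.5% DMSO, after seeding at 10,000 cells/well and 4 h adherence.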

[3] = system: HCV genotype 1a Y93H resistant mutant replicon; assay: Replicon assay against resistant mutant 1a Y93H (transient transfection); format: cell-based; conditions: Hepatitis C virus, read-out: Genotype 1a Y93H
Procedure: Assay 3: Replicon Assays Against Resistant Mutants […]
Potencies of test compounds against additional mutations of interest were determined using transient transfection assays. These mutants included genotype 1a Y93C, Y93H, M28T, Q30E, Q30K, L31M, and Y93N. The mutation was first introduced into the parental plasmid by site-directed mutagenesis. The replicon plasmid was then linearized and in vitro transcribed to RNA. The RNA was used to transiently transfect Huh-LUNET cells (obtained from ReBLikon GmbH, Schriesheim, Germany) by electroporation, and the potencies of test compounds against the mutants were determined as previously described.

| SMILES | EC50 (HCV genotype 1a replicon) [nM] | EC50 [1] [nM] | EC50 [2] [nM] | EC50 (HCV genotype 1b replicon) [nM] | EC50 [3] [nM] |
| --- | --- | --- | --- | --- | --- |
| COC(=O)N[C@H](C(=O)N1C[C@@H](C)C[C@H]1c1nc(-c2ccc(-c3cc(F)c(NC(=O)c4ccc(N5CCN(C(=O)C(C)(C)C)C[C@H]5C)nc4)cc3OC(F)(F)F)cc2)c[nH]1)C(C)C [Example 11, [(S)-1-((2S,4S)-2-{4-[4′-({6-[(R)-4-(2,2-Dimethyl-propionyl)-2-methyl-piperazin-1-yl]-pyridine-3-carbonyl}-amino)-5′-fluoro-2′-trifluoromethoxy-biphenyl-4-yl]-1H-imidazol-2-yl}-4-methyl-pyrrolidine-1-carbonyl)-2-methyl-propyl]-carbamic acid methyl ester] | < 0.1 | 1 to 10 | 1 to 10 | < 0.1 | 10 to 1000 |
| COC(=O)N[C@H](C(=O)N1C[C@@H](C)C[C@H]1c1nc(-c2ccc(-c3cc(Cl)c(NC(=O)c4ccc(N5CCN(C(=O)C(C)(C)C)C[C@H]5C)nc4)cc3OC(F)(F)F)cc2)c[nH]1)C1CCOCC1 [Example 14] | < 0.1 | 0.1 to 1 | 0.1 to 1 | < 0.1 | 1 to 10 |
| COC(=O)N[C@H](C(=O)N1C[C@@H](C)C[C@H]1c1nc(-c2ccc(-c3cc(Cl)c(NC(=O)c4ccc(N5CCN(C(=O)C(C)(C)C)C[C@H]5C)nc4)cc3OC(F)(F)F)cc2)c[nH]1)C(C)C [Example 10, [(S)-1-((2S,4S)-2-{4-[5′-Chloro-4′-({6-[(R)-4-(2,2-dimethyl-propionyl)-2-methyl-piperazin-1-yl]-pyridine-3-carbonyl}-amino)-2′-trifluoromethoxy-biphenyl-4-yl]-1H-imidazol-2-yl}-4-methyl-pyrrolidine-1-carbonyl)-2-methyl-propyl]-carbamic acid methyl ester] | < 0.1 | 1 to 10 | 1 to 10 | < 0.1 | 1 to 10 |
| COC(=O)N[C@H](C(=O)N1C[C@@H](C)C[C@H]1c1nc(-c2ccc(-c3c(Cl)cc(C(=O)Nc4ccc(N5CCN(C(=O)C(C)(C)C)C[C@H]5C)nc4)cc3OC(F)(F)F)cc2)c[nH]1)C1CCOCC1 [Example 20, Methyl ((S)-2-((2S,4S)-2-(4-(2′-chloro-4′-((6-((R)-2-methyl-4-pivaloylpiperazin-1-yl)pyridin-3-yl)carbamoyl)-6′-(trifluoromethoxy)-[1,1′-biphenyl]-4-yl)-1H-imidazol-2-yl)-4-methylpyrrolidin-1-yl)-2-oxo-1-(tetrahydro-2H-pyran-4-yl)ethyl)carbamate] | < 0.1 | 1 to 10 | 1 to 10 | < 0.1 | 1 to 10 |
| COC(=O)N[C@H](C(=O)N1C[C@@H](OC)C[C@H]1c1nc(-c2ccc(-c3cc(Cl)c(NC(=O)c4ccc(N5CCN(C(=O)C(C)(C)CO)C[C@H]5C)nc4)cc3OC(F)(F)F)cc2)c[nH]1)C1CCOCC1 [Example 16, [(S)-2-((2S,4S)-2-{4-[5′-Chloro-4′-({6-[(R)-4-(3-hydroxy-2,2-dimethyl-propionyl)-2-methyl-piperazin-1-yl]-pyridine-3-carbonyl}-amino)-2′-trifluoromethoxy-biphenyl-4-yl]-1H-imidazol-2-yl}-4-methoxy-pyrrolidin-1-yl)-2-oxo-1-(tetrahydro-pyran-4-yl)-ethyl]-carbamic acid methyl ester] | < 0.1 | 1 to 10 | 1 to 10 | < 0.1 | 1 to 10 |
| COC(=O)N[C@H](C(=O)N1CC2(C[C@H]1c1nc(-c3ccc(-c4ccc(NC(=O)c5ccc(N6CCN(C(=O)[C@H]7CC7(C)C)C[C@H]6C)nc5)cc4OC(F)(F)F)cc3)c[nH]1)OCCO2)C(C)C [Example 4, Methyl (S)-1-((S)-8-(4-(4′-(6-((R)-4-((S)-2,2-dimethylcyclopropanecarbonyl)-2-methylpiperazin-1-yl)nicotinamido)-2′-(trifluoromethoxy)biphenyl-4-yl)-1H-imidazol-2-yl)-1,4-dioxa-7-azaspiro[4.4]nonan-7-yl)-3-methyl-1-oxobutan-2-ylcarbamate] | < 0.1 | 1 to 10 | 1 to 10 | < 0.1 | 0.1 to 1 |
